Peptide text beside a SMILES is read from it.
Tests used:
interleukin-6 = experiment: Suppression of LPS-induced IL-6 expression in RAW 264.7 macrophage cells (RT-PCR, Real-Time PCR); assay type: cell-based
Description: (§1) First, RAW 264.7 macrophage cells were purchased from American Type Culture Collection (ATCC; Manassas, Va.), and were culture at a temperature of 37° C., under 5% CO2 atmosphere, using 10% Fetal Bovine Serum (FBS) and Dulbecco's Modified Eagle's Medium (DMEM) containing 1% penicillin/streptomycin.
The cultured RAW 264.7 macrophage cells were divided into a 6-well cell culture plate. After 24 hours, the cells were pretreated with compound 1.1 (SEQ ID NO: 2), compound 1.2, and smaducin-6, respectively, in a concentration of 100 nM for 30 min, and further treated with lipopolysaccharides (LPS) for two hours. These cells were collected using TRIzol® and the RNA was extracted. From 2 μg of the extracted RNA, cDNAs (complementary deoxyribonucleic acids) were synthesized and reverse transcription polymerase chain reactions (RT-PCR) and real-time polymerase chain reactions (Real-Time PCR) were performed. Samples from the RT-PCR were confirmed by electrophoresis on agarose gels and quantified using densitometer. A glyceraldehyde 3-phosphate dehydrogenase (GAPDH) gene was used as a loading control for the interleukin-6 gene.
RAW 264.7 macrophage cells were treated with varying concentrations of compound 1.1 (SEQ ID NO: 2) from 50 pM to 500 nM for 30 minutes, and treated with 100 ng/mL of LPS for two hours.

AP-1 = experiment: AP-1-Luc reporter luciferase assay in LPS-treated RAW 246.7 cells; assay type: cell-based; settings: 100 nM for 30 minutes, LPS 100 ng/ml 2 hours
Description: RAW 246.7 macrophage cells were transfected with AP-1-Luc reporter plasmid as described in Example 2.3. After 24 hours, the transfected cells with AP-1-Luc reporter plasmid were pretreated with compound 1.1 (SEQ ID NO: 2) (100 nM), IRAK1/4 inhibitor (25 μM), and smaducin-6 (100 nM) for 30 minutes, and then further treated with LPS (100 ng/ml) for 2 hours.

[1] = tested on: ARPE-19 cells (Nox-4, VEGF, VEGFR1, VEGFR2, Ang1, Ang2, Tie-2, EPO, EPOR); experiment: Western blot of angiogenesis related factors in high-glucose ARPE-19 cells; assay type: cell-based, human; settings: 30 mM glucose 48 hours, 10 nM and 50 nM
Description: ARPE-19 cells were treated with 5.5 mM of glucose as reference control. For experiment group, the ARPE-19 cells were treated with 30 mM of glucose for 48 hours to induce high blood glucose condition, and simultaneously treated with DMSO, compound 1.1 (SEQ ID NO: 2) (10 nM), and compound 1.1 (SEQ ID NO: 2) (50 nM). Changes in expression of Nox-4, VEGF, VEGFR1, VEGFR2, Ang1, Ang2, Tie-2, EPO, and EPOR proteins were measured by Western blot analysis.

[2] = tested on: G-CSF, IL-2, SCF, VEGF, CX3CL1, IGFBP5, IGFBP6, IL-1α, IL-1β, IL-6, IL-9, MCP-1, MIP-3α, IL12p40/70, MIG, TNF-α, and VCAM-1; experiment: Cytokine array (Mouse cytokine array C3) of LPS-treated RAW 264.7 macrophage cells; assay type: cell-based; settings: 100 nM for 30 minutes, LPS two hours, densitometer
Description: as §1
In addition, RAW 264.7 macrophage cells cultured as described above were also divided into a 6-well plate, after 24 hours, were pretreated with 100 nM of compound 1.1 (SEQ ID NO: 2) for 30 minutes, and further treated with LPS for two hours. The above cell culture was collected and, using a cytokine array (Mouse cytokine array C3, RayBiotech), changes in amounts of cytokine and chemokine were quantified by a densitometer. The cytokines and chemokines detected by the compound of the present invention included G-CSF, IL-2, SCF, VEGF, CX3CL1, IGFBP5, IGFBP6, IL-1α, IL-1β, IL-6, IL-9, MCP-1, MIP-3α, IL12p40/70, MIG, TNF-α, and VCAM-1.

BRE (BMP6 signaling) = experiment: BRE-Luc reporter assay in Raw 264.7 cells treated with BMP6; assay type: cell-based; settings: 100 ng/mL BMP6 two hours
Description: Specifically, 5×NF-κB-Luc reporter plasmid, SBE-Luc reporter plasmid, and BRE-Luc reporter plasmid were individually transfected into Raw 264.7 macrophage cells. After 24 hours, the cells transfected with the NF-κB-Luc reporter plasmid were treated with 100 ng/mL of LPS, the cells transfected with the SBE-Luc reporter plasmid were treated with 5 ng/mL of TFG-β1, and the cells transfected with the BRE-Luc reporter plasmid were treated with 100 ng/mL of BMP6 for two hours.

[3] = tested on: inflammatory signaling pathway protein complex mediated by MyD88 or RIP1; experiment: Immunoprecipitation of inflammatory signaling pathway protein complex in LPS-treated RAW264.7 cells; assay type: cell-based; settings: pretreated, then LPS
Description: Specifically, using antibodies corresponding to proteins which relate to the formation of Toll-like receptors (TLRs) signaling pathway protein complex (for example, IRAK1, TRAF6, MyD88, RIP1 and Pellino-1), disruption of the formation of inflammatory signaling pathway protein complexes was affirmed by immunoprecipitation. As reference control, a relative amount of expression of β-actin from the total cell lysate was compared and presented using Western blot.
RAW264.7 macrophage cells were individually retreated with compound 1.1 (SEQ ID NO: 2) and compound 1.2, and smaducin-6, and further treated with LPS. These RAW264.7 macrophage cells were collected, lysed in a lysis butter (PBS containing 0.5% Triton X-100, 20 mM HEPES (pH 7.4), 150 mM NaCl, 12.5 mM β-glycerol phosphate, 1.5 mM MgCl2, 10 mM NaF, 2 mM DTT, 1 mM Na3O4V, 2 mM EGTA, and 1 mM Protease Inhibitor (PMSF)), and centrifuged at 13000 rpm for 10 minutes. For immunoprecipitation assays, the supernatant was incubated at 4° C. for 12 hours, with protein-A agarose beads and the antibodies corresponding to the above proteins, and the beads were subsequently washed three times with the lysis buffer. The immunoprecipitated substances were dissociated from the beads with addition of 2× sample buffer, and were boiled. The prepared samples were loaded on SDS-polyacrylamide gel (FIG. 7).

**Q.** `CCCCCCCCCCCCCCCC(=O)N1CCC[C@H]1C(=O)N1CCC[C@H]1C(=O)NCC(=O)N[C@@H](Cc1ccc(O)cc1)C(=O)O` [compound 1.1, (S)-3-(4-hydroxyphenyl)-2-(2-((S)-1-((S)-1-palmitoylpyrrolidine-2-carbonyl)pyrrolidine-2-carboxamido)acetamido)propanoic acid] (HELM PEPTIDE1{[CCCCCCCCCCCCCCCC(=O)[*:2]].P.P.G.Y}$$$$V2.0) was tested. Which IC50 (interleukin-6; Mus musculus, RAW264.7, 50 pM to 500 nM for 30 minutes, 100 ng/mL LPS two hours, read-out: concentration where the expression of interleukin-6 was suppressed to 50% or below (IC50)) did it give?
**A.** ~1.6 nM

**Q.** And the “expression of interleukin-6 induced by LPS treatment” value (interleukin-6; pretreated 100 nM for 30 min, LPS two hours, compared to untreated sample)?
**A.** suppressed

**Q.** What about the “AP-1-Luc luciferase activity (MAPK signaling pathway)” value (AP-1) of the same compound?
**A.** did not suppress MAPK signaling pathways

**Q.** And the “expression of Ang1 and Tie-2” value [1]?
**A.** increased according to increased concentration

**Q.** And the “expression of Nox4, VEGF, VEGFR1,2, Ang2, EPO and EPOR” value [1]?
**A.** reduced

**Q.** And the “expression of cytokines and chemokines induced by LPS (G-CSF, IL-2, SCF, VEGF, CX3CL1, IGFBP5, IGFBP6, IL-1α, IL-1β, IL-6, IL-9, MCP-1, MIP-3α, IL12p40/70, MIG, TNF-α, VCAM-1)” value [2]?
**A.** suppressed as statistically meaningful

**Q.** And the “activation of BRE induced by BMP6 treatment” value (BRE (BMP6 signaling))?
**A.** not inhibited

**Q.** What about the “formation of inflammatory signaling pathway protein complex mediated by MyD88 or RIP1” value [3] of the same compound?
**A.** disrupted
